Columns and labels:
Format in all cases: cell-based
[1] = biological target: T1, KRAS (Homo sapiens, UniProt P01116); assay: KRASamp MSD assay; conditions: KE39 (KRAS amplified) cells, treated with test compounds for 24 hr, MSD readout of KRAS degradation
T1 construct: endogenous in cells; host or cells: KE39 (KRAS amplified) cells
Summary of the method: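 Degradation DC50 derived by curve fitting, with KRAS levels quantified by MSD electrochemiluminescence (capture/detection antibodies, recombinant WT KRAS standard). Lysates prepared from KE39 cells (KRAS amplified) exposed to test compounds for 24 hr.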

[2] = biological target: T2, KRAS G12D (Homo sapiens, UniProt P01116, G12D); assay: KRAS G12D HiBit assay; conditions: AsPc-1-KRAS (G12D)-HiBit-KI cell, compound treatment for 24 hours; for DC50: absolute DC50
T2 construct: AsPc-1-KRAS (G12D)-HiBit-KI cell (Pharmaron); host or cells: AsPc-1-KRAS (G12D)-HiBit-KI cells (HiBiT knock-in at the endogenous KRAS locus)
T2 sequence (P01116 1-188 isoform P01116-2 G12D): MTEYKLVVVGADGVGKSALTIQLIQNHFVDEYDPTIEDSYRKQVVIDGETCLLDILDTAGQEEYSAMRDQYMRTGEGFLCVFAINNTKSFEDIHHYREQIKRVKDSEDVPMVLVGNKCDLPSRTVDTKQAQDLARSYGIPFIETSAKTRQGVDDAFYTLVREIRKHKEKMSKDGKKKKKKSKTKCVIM
Summary of the method: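 HiBiT luminescence, detected by adding lytic buffer, substrate and LgBiT protein, served as the KRAS G12D read-out. Compounds, serially diluted 3-fold over 10 points from 0.3 mM DMSO stock, were on cells for 24 h; percent inhibition normalized to cells given 0.1% DMSO only.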

[3] = biological target: T3, KRAS G12V (Homo sapiens, UniProt P01116, G12V); assay: KRAS G12V HiBit assay; conditions: SW620-KRAS (G12V)-HiBit-KI cells, compound treatment for 24 hours
T3 construct: SW620-KRAS (G12V)-HiBit-KI cell (Pharmaron); host or cells: SW620-KRAS (G12V)-HiBit-KI cells (HiBiT knock-in at the endogenous KRAS locus)
T3 sequence (P01116 1-188 isoform P01116-2 G12V): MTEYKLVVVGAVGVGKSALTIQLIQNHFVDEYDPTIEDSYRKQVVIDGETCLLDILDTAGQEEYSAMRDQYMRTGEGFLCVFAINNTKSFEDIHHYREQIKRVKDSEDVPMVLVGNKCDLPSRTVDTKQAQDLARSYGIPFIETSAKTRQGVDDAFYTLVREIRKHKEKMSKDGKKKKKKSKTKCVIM
Summary of the method: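 Luminescence from lytic Nano-Glo HiBiT detection with LgBiT read KRAS G12V levels after 24 h compound exposure. Dilutions were 10-point, 3-fold, from a 0.3 mM DMSO stock. Degradation activity was normalised to cells given 0.1% DMSO alone.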

[4] = numeric bounds given in place of class symbols

T1 sequence (P01116 1-188 isoform P01116-2): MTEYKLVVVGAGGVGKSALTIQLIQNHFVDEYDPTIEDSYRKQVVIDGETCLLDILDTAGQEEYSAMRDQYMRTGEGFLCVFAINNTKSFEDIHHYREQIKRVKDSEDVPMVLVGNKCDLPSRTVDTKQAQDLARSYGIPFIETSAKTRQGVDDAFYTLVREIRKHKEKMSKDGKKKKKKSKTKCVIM

SMILES | DC50 [1] [nM] | DC50 ([2]; class symbols) [nM] | Dmax ([2]; class symbols) [%] | DC50 ([3]; class symbols) [nM] | DC50 ([3]; numeric bounds) [nM] | DC50 [2, 4] [nM]
C#Cc1c(F)ccc2cc(O)cc(-c3ncc4c(N5CCCC(C#N)CC5)nc(OC[C@@]56CCCN5[C@H](COC(=O)N5CCC(CN7CCC(c8ccc9c(c8)n(C)c(=O)n9C8CCC(=O)NC8=O)CC7)CC5)CC6)nc4c3F)c12 (stereo partly drawn) [Compound 110, ((3S,7aS)-7a-(((4-(4-Cyanoazepan-1-yl)-7-(8-ethynyl-7-fluoro-3-hydroxynaphthalen-1-yl)-8-fluoropyrido[4,3-d]pyrimidin-2-yl)oxy)methyl)hexahydro-1H-pyrrolizin-3-yl)methyl 4-((4-(1-(2,6-dioxopiperidin-3-yl)-3-methyl-2-oxo-2,3-dihydro-1H-benzo[d]imidazol-5-yl)piperidin-1-yl)methyl) piperidine-1-carboxylate] | 1 to 10 | < 100 | > 50 | < 10 | – | –
CCc1c(F)ccc2cc(O)cc(-c3ncc4c(N5CCC[C@@](C)(O)C5)nc(OC[C@@]56CCCN5[C@H](COC(=O)N5CC7(CC(N8CCC(c9ccc%10c(c9)n(C)c(=O)n%10C9CCC(=O)NC9=O)CC8)C7)C5)CC6)nc4c3F)c12 (stereo partly drawn) [Compound 416, ((3S,7aS)-7a-(((7-(8-ethyl-7-fluoro-3-hydroxynaphthalen-1-yl)-8-fluoro-4-((R)-3-hydroxy-3-methylpiperidin-1-yl)pyrido[4,3-d]pyrimidin-2-yl)oxy)methyl)hexahydro-1H-pyrrolizin-3-yl)methyl 6-(4-(1-(2,6-dioxopiperidin-3-yl)-3-methyl-2-oxo-2,3-dihydro-1H-benzo[d]imidazol-5-yl)piperidin-1-yl)-2-azaspiro[3.3]heptane-2-carboxylate] | < 1 | < 100 | – | < 10 | – | –
CCc1c(F)ccc2cc(O)cc(-c3ncc4c(N5CCC[C@@](C)(O)C5)nc(OC[C@]56CCCN5[C@H](CN5CCC(OCCCc7ccc8c(c7)n(C)c(=O)n8C7CCC(=O)NC7=O)CC5)CC6)nc4c3F)c12 (stereo partly drawn) [Compound 444, 3-(5-(3-((1-(((3S,7aR)-7a-(((7-(8-Ethyl-7-fluoro-3-hydroxynaphthalen-1-yl)-8-fluoro-4-((R)-3-hydroxy-3-methylpiperidin-1-yl)pyrido[4,3-d]pyrimidin-2-yl)oxy)methyl)hexahydro-1H-pyrrolizin-3-yl)methyl)piperidin-4-yl)oxy)propyl)-3-methyl-2-oxo-2,3-dihydro-1H-benzo[d]imidazol-1-yl) piperidine-2,6-dione] | 1 to 10 | < 100 | – | – | > 78.5 | –
Cn1c(=O)n(C2CCC(=O)NC2=O)c2ccc(C3CCN(CC4CCN(C(=O)OC[C@@H]5CC[C@]6(COc7nc(N8CCC[C@@](C)(O)C8)c8cnc(-c9cc(O)cc%10ccc(F)c(Cl)c9%10)c(F)c8n7)CCCN56)CC4)CC3)cc21 (stereo partly drawn) [Compound 409, ((3S,7aS)-7a-(((7-(8-chloro-7-fluoro-3-hydroxynaphthalen-1-yl)-8-fluoro-4-((R)-3-hydroxy-3-methylpiperidin-1-yl)pyrido[4,3-d]pyrimidin-2-yl)oxy)methyl)hexahydro-1H-pyrrolizin-3-yl)methyl 4-((4-(1-(2,6-dioxopiperidin-3-yl)-3-methyl-2-oxo-2,3-dihydro-1H-benzo[d]imidazol-5-yl)piperidin-1-yl)methyl)piperidine-1-carboxylate] | < 1 | < 100 | – | < 10 | – | –
CCc1c(F)ccc2cc(O)cc(-c3ncc4c(N5CCC[C@@](C)(O)C5)nc(OC[C@]56CCCN5[C@H](COC(=O)N5CCC(CCCCOc7ccc8c(c7)n(C)c(=O)n8C7CCC(=O)NC7=O)CC5)CC6)nc4c3F)c12 (stereo partly drawn) [Compound 303, ((3S,7aR)-7a-(((7-(8-ethyl-7-fluoro-3-hydroxynaphthalen-1-yl)-8-fluoro-4-((R)-3-hydroxy-3-methylpiperidin-1-yl)pyrido[4,3-d]pyrimidin-2-yl)oxy)methyl)hexahydro-1H-pyrrolizin-3-yl)methyl 4-(4-((1-(2,6-dioxopiperidin-3-yl)-3-methyl-2-oxo-2,3-dihydro-1H-benzo[d]imidazol-5-yl)oxy)butyl)piperidine-1-carboxylate] | 1 to 10 | < 100 | – | < 10 | – | –
CCc1c(F)ccc2cc(O)cc(-c3ncc4c(N5CCC[C@@](C)(O)C5)nc(OC[C@]56CCCN5[C@H](COC(=O)N5CCC(COc7ccc8c(c7)n(C)c(=O)n8C7CCC(=O)NC7=O)CC5)CC6)nc4c3F)c12 (stereo partly drawn) [Compound 301, ((3S,7aR)-7a-(((7-(8-ethyl-7-fluoro-3-hydroxynaphthalen-1-yl)-8-fluoro-4-((R)-3-hydroxy-3-methylpiperidin-1-yl)pyrido[4,3-d]pyrimidin-2-yl)oxy)methyl)hexahydro-1H-pyrrolizin-3-yl)methyl 4-(((1-(2,6-dioxopiperidin-3-yl)-3-methyl-2-oxo-2,3-dihydro-1H-benzo[d]imidazol-5-yl)oxy)methyl)piperidine-1-carboxylate] | < 1 | < 100 | – | < 10 | – | –
C#Cc1c(F)ccc2cc(O)cc(-c3ncc4c(N5CCC[C@@](C)(O)C5)nc(OC[C@@]56CCCN5[C@H](COC(=O)N5CC7(CCC(CN8CCC(c9ccc%10c(c9)n(C)c(=O)n%10C9CCC(=O)NC9=O)CC8)CC7)C5)CC6)nc4c3F)c12 (stereo partly drawn) [Compound 421, ((3S,7aS)-7a-(((7-(8-ethynyl-7-fluoro-3-hydroxynaphthalen-1-yl)-8-fluoro-4-((R)-3-hydroxy-3-methylpiperidin-1-yl)pyrido[4,3-d]pyrimidin-2-yl)oxy)methyl)hexahydro-1H-pyrrolizin-3-yl)methyl 7-((4-(1-(2,6-dioxopiperidin-3-yl)-3-methyl-2-oxo-2,3-dihydro-1H-benzo[d]imidazol-5-yl)piperidin-1-yl)methyl)-2-azaspiro[3.5]nonane-2-carboxylate] | < 1 | < 100 | – | < 10 | – | –
CCc1c(F)ccc2cc(O)cc(-c3ncc4c(N5CCC[C@@](C)(O)C5)nc(OC[C@]56CCCN5[C@H](COC(=O)N5CCC(N7CCC(c8ccc9c(c8)n(C)c(=O)n9C8CCC(=O)NC8=O)C7)CC5)CC6)nc4c3F)c12 (stereo partly drawn) [Compound 337, ((3S,7aR)-7a-(((7-(8-ethyl-7-fluoro-3-hydroxynaphthalen-1-yl)-8-fluoro-4-((R)-3-hydroxy-3-methylpiperidin-1-yl)pyrido[4,3-d]pyrimidin-2-yl)oxy)methyl)hexahydro-1H-pyrrolizin-3-yl)methyl 4-(3-(1-(2,6-dioxopiperidin-3-yl)-3-methyl-2-oxo-2,3-dihydro-1H-benzo[d]imidazol-5-yl)pyrrolidin-1-yl)piperidine-1-carboxylate] | 1 to 10 | < 100 | – | 10 to 100 | – | –
CCc1c(F)ccc2cc(O)cc(-c3ncc4c(N5CCC[C@@](C)(O)C5)nc(OC[C@@]56CCCN5[C@H](COC(=O)N5CCC(C#Cc7ccc8c(c7)n(C)c(=O)n8C7CCC(=O)NC7=O)CC5)CC6)nc4c3F)c12 (stereo partly drawn) [Compound 404, ((3S,7aS)-7a-(((7-(8-ethyl-7-fluoro-3-hydroxynaphthalen-1-yl)-8-fluoro-4-((R)-3-hydroxy-3-methylpiperidin-1-yl)pyrido[4,3-d]pyrimidin-2-yl)oxy)methyl)hexahydro-1H-pyrrolizin-3-yl)methyl 4-((1-(2,6-dioxopiperidin-3-yl)-3-methyl-2-oxo-2,3-dihydro-1H-benzo[d]imidazol-5-yl)ethynyl)piperidine-1-carboxylate] | 1 to 10 | – | – | < 10 | – | > 100
CCc1c(F)ccc2cc(O)cc(-c3ncc4c(N5CCC[C@H](CO)C5)nc(OC[C@@]56CCCN5[C@H](COC(=O)N5CCC(CN7CCC(c8ccc9c(c8)n(C)c(=O)n9C8CCC(=O)NC8=O)CC7)CC5)CC6)nc4c3F)c12 (stereo partly drawn) [Compound 339, ((3S,7aS)-7a-(((7-(8-ethyl-7-fluoro-3-hydroxynaphthalen-1-yl)-8-fluoro-4-((S)-3-(hydroxymethyl)piperidin-1-yl)pyrido[4,3-d]pyrimidin-2-yl)oxy)methyl)hexahydro-1H-pyrrolizin-3-yl)methyl 4-((4-(1-(2,6-dioxopiperidin-3-yl)-3-methyl-2-oxo-2,3-dihydro-1H-benzo[d]imidazol-5-yl)piperidin-1-yl)methyl)piperidine-1-carboxylate] | 1 to 10 | – | – | > 100 | – | > 100

From US12599672B2, “KRAS proteolysis targeting chimeras” (PAQ Therapeutics Inc., priority 2023, dated 2026)
